Measured values: US11793824B2, “Administration of nicotinamide mononucleotide in the treatment of disease” (Washington University, priority 2013, dated 2023)

Columns and labels:
neurospheres (NSPCs) = assay: Microarray with parametric analysis of gene set enrichment (PAGE) of FK866-treated neurospheres; assay type: cell-based, mouse
Protocol: For individual genes, raw microarray data were subjected to Z score transformation, and Z ratios were calculated as described previously (Cheadle et al, 2003). Subsequent analysis and Parametric Analysis of Gene Set Enrichment (PAGE) analysis was performed as previously described (Yoshino et al, 2011). The microarray data used in this study has been deposited into the NCBI GEO database (GEO accession number GSE49784).
The inventors investigated how inhibition of Nampt affects neurosphere proliferation. […] To distinguish whether this decrease in cell number was due to an inhibition of proliferation or enhancement of death, the inventors analyzed the protein levels of markers of proliferation, apoptosis, and autophagy. […] Parametric analysis of gene enrichment (PAGE) was conducted based on microarray analyses. See the Methods section. […] Data are presented as mean±s.e.m. *P<0.05. **P<0.01. ***P<0.001.

[1] = Oxygen consumption, energy expenditure, respiratory quotient (Oxymax Lab Animal Monitoring System); assay type: in vivo, mouse; details: 100 mg/kg and 300 mg/kg groups, 12 month time point
Protocol: A 12 month-long NMN administration study using wild-type mice under a regular chow-fed condition was conducted. NMN was administered through drinking water, and two doses of NMN, 100 and 300 mg/kg body weight/day, were tested. […] To assess beneficial and possible adverse effects of NMN, a variety of physiological parameters were periodically monitored, including body weight, body temperature, food and water intake, fed and fasted blood glucose levels, fed and fasted plasma lipid panels, and glucose and insulin tolerance, in NMN-administered and control mice. Blood chemistry, blood cell counts, urine strip test, and other physiological tests including physical activity test were also checked.
In this long-term NMN administration study (See Methods; Administration of NMN through Drinking Water and Determination of NMN Stability and Toxicity), the inventors measured oxygen consumption, energy expenditure, and respiratory quotient for control, mice administered 100 mg/kg NMN per day and mice administered 300 mg/kg NMN per day at the 12 month time point by using the Oxymax Lab Animal Monitoring System (Columbus Instruments, Columbus, OH).

[2] = FK866 10 nM 48 hours, downregulated pathway
[3] = FK866 10 nM 48 hours, upregulated pathway

## O=C(/C=C/c1cccnc1)NCCCCC1CCN(C(=O)c2ccccc2)CC1 [FK866]
Neurospheres (NSPCs); [2]
  Z Ratio: BASE_EXCISION_REPAIR: −4.3
  Z Ratio: CELL_CYCLE_CHECKPOINT_GO_0000075: −3.92
  Z Ratio: CELL_CYCLE_GO_0007049: −4.63
  Z Ratio: CELL_CYCLE_PHASE: −4.23
  Z Ratio: CELL_CYCLE_PROCESS: −4.75
  Z Ratio: CHROMOSOMAL_PART: −3.48
  Z Ratio: CHROMOSOME: −4.75
  Z Ratio: CONDENSED_CHROMOSOME: −3.57
  Z Ratio: CONDENSED_NUCLEAR_CHROMOSOME: −3.36
  Z Ratio: DNA_DEPENDENT_DNA_REPLICATION: −6.07
  Z Ratio: DNA_INTEGRITY_CHECKPOINT: −3.2
  Z Ratio: DNA_METABOLIC_PROCESS: −6.49
  Z Ratio: DNA_RECOMBINATION: −3.69
  Z Ratio: DNA_REPAIR: −5.98
  Z Ratio: DNA_REPLICATION: −6.2
  Z Ratio: DOUBLE_STRANDED_DNA_BINDING: −3.95
  Z Ratio: HYDROLASE_ACTIVITY_HYDROLYZING_N_GLYCOSYL_COMPOUNDS: −3.63
  Z Ratio: INTERPHASE: −3.28
  Z Ratio: INTERPHASE_OF_MITOTIC_CELL_CYCLE: −3.07
  Z Ratio: INTRACELLULAR_NON_MEMBRANE_BOUND_ORGANELLE: −3.46
  Z Ratio: INTRACELLULAR_ORGANELLE_PART: −5.85
  Z Ratio: MACROMOLECULAR_COMPLEX: −4.14
  Z Ratio: MEMBRANE_ENCLOSED_LUMEN: −5.04
  Z Ratio: METHYLTRANSFERASE_ACTIVITY: −3.3
  Z Ratio: MITOTIC_CELL_CYCLE: −3.48
  Z Ratio: M_PHASE: −3.67
  Z Ratio: NON_MEMBRANE_BOUND_ORGANELLE: −3.46
  Z Ratio: NUCLEAR_CHROMOSOME: −4.11
  Z Ratio: NUCLEAR_LUMEN: −4.74
  Z Ratio: NUCLEAR_PART: −7.07
  Z Ratio: NUCLEOBASE_NUCLEOSIDE_AND_NUCLEOTIDE_METABOLIC_PROCESS: −3.35
  Z Ratio: NUCLEOBASE_NUCLEOSIDE_NUCLEOTIDE_AND_NUCLEIC_ACID: −5.34
  Z Ratio: NUCLEOLUS: −3.47
  Z Ratio: NUCLEOPLASM: −3.62
  Z Ratio: NUCLEOTIDE_METABOLIC_PROCESS: −3.21
  Z Ratio: NUCLEUS: −5.95
  Z Ratio: ORGANELLE_LUMEN: −5.04
  Z Ratio: ORGANELLE_PART: −5.72
  Z Ratio: PROTEIN_COMPLEX: −3.08
  Z Ratio: REPLICATION_FORK: −3.6
  Z Ratio: RESPONSE_TO_DNA_DAMAGE_STIMULUS: −5.8
  Z Ratio: RESPONSE_TO_ENDOGENOUS_STIMULUS: −4.18
  Z Ratio: RIBONUCLEOPROTEIN_COMPLEX: −3.49
  Z Ratio: RNA_BINDING: −3.44
  Z Ratio: RNA_PROCESSING: −4.32
  Z Ratio: SINGLE_STRANDED_DNA_BINDING: −3.17
  Z Ratio: STRUCTURE_SPECIFIC_DNA_BINDING: −4.08
  Z Ratio: TRANSFERASE_ACTIVITY_TRANSFERRING_ONE_CARBON_GROUPS: −3.37
  Z Ratio: TRNA_METABOLIC_PROCESS: −3.76
  Z Ratio: TRNA_PROCESSING: −3.51
Neurospheres (NSPCs); [3]
  Z Ratio: ACTIN_FILAMENT_BASED_PROCESS: 3.18
  Z Ratio: ANATOMICAL_STRUCTURE_DEVELOPMENT: 4.47
  Z Ratio: ANATOMICAL_STRUCTURE_MORPHOGENESIS: 3.39
  Z Ratio: AXON_GUIDANCE: 3.34
  Z Ratio: CELL_DEVELOPMENT: 3.44
  Z Ratio: CELL_JUNCTION: 3.29
  Z Ratio: CELL_MATRIX_ADHESION: 3.18
  Z Ratio: CELL_MATRIX_JUNCTION: 3.20
  Z Ratio: CELL_SUBSTRATE_ADHERENS_JUNCTION: 3.17
  Z Ratio: CELL_SURFACE_RECEPTOR_LINKED_SIGNAL_TRANS-DUCTION_GO_000166: 3.17
  Z Ratio: CYTOSKELETAL_PROTEIN_BINDING: 3.36
  Z Ratio: EARLY_ENDOSOME: 3.37
  Z Ratio: ENZYME_LINKED_RECEPTOR_PROTEIN_SIGNALING_PATHWAY: 4.05
  Z Ratio: EXTRACELLULAR_REGION: 4.10
  Z Ratio: EXTRACELLULAR_REGION_PART: 3.82
  Z Ratio: EXTRACELLULAR_SPACE: 3.66
  Z Ratio: FOCAL_ADHESION: 3.44
  Z Ratio: FOCAL_ADHESION_FORMATION: 3.83
  Z Ratio: GENERATION_OF_NEURONS: 3.34
  Z Ratio: Growth: 3.85
  Z Ratio: IDENTICAL_PROTEIN_BINDING: 3.19
  Z Ratio: INTERMEDIATE_FILAMENT: 3.61
  Z Ratio: INTERMEDIATE_FILAMENT_CYTOSKELETON: 3.61
  Z Ratio: LIGAND_DEPENDENT_NUCLEAR_RECEPTOR_ACTIVITY: 3.26
  Z Ratio: LIPID_HOMEOSTASIS: 3.28
  Z Ratio: MEMBRANE: 3.55
  Z Ratio: MESODERM_DEVELOPMENT: 3.45
  Z Ratio: MULTICELLULAR_ORGANISMAL_DEVELOPMENT: 4.64
  Z Ratio: NEGATIVE_REGULATION_OF_GROWTH: 3.84
  Z Ratio: NERVOUS_SYSTEM_DEVELOPMENT: 3.39
  Z Ratio: NEUROGENESIS: 3.21
  Z Ratio: NEURON_PROJECTION: 3.62
  Z Ratio: OLIGOSACCHARIDE_METABOLIC_PROCESS: 3.82
  Z Ratio: ORGAN_DEVELOPMENT: 4.28
  Z Ratio: PDZ_DOMAIN_BINDING: 3.26
  Z Ratio: PHOSPHOINOSITIDE_BINDING: 4.49
  Z Ratio: PLASMA_MEMBRANE: 3.46
  Z Ratio: POSITIVE_REGULATION_OF_SECRETION: 3.51
  Z Ratio: RECEPTOR_BINDING: 4.25
  Z Ratio: REGULATION_OF_CELL_GROWTH: 3.49
  Z Ratio: REGULATION_OF_GROWTH: 3.48
  Z Ratio: REGULATION_OF_SIGNAL_TRANSDUCTION: 3.77
  Z Ratio: SENSORY_PERCEPTION: 3.57
  Z Ratio: SIALYLTRANSFERASE_ACTIVITY: 1.61
  Z Ratio: SIGNAL_TRANSDUCTION: 3.47
  Z Ratio: SYSTEM_DEVELOPMENT: 4.69
  Z Ratio: SYSTEM_PROCESS: 3.74
  Z Ratio: TASTE_RECEPTOR_ACTIVITY: 3.36
  Z Ratio: TRANSMEMBRANE_RECEPTOR_PROTEIN_TYROSINE_KINASE_SIGNALING_PATH: 3.18
  Z Ratio: VACUOLE: 3.19
Neurospheres (NSPCs); FK866-treated neurospheres
  number of the top 50 downregulated pathways related to the cell cycle: 13
  top 50 upregulated pathways involved in cell death: none

## NC(=O)c1ccc[n+]([C@@H]2O[C@H](COP(=O)([O-])O)[C@@H](O)[C@H]2O)c1 [NMN, nicotinamide mononucleotide]
[1]
  oxygen consumption: significantly increased
  respiratory quotient: significantly decreased
[1]; through 24 hours
  energy expenditure: significant increases
